Laboratory results: PubChem BioAssay AID330 (DTP/NCI, 2004)
“And” between values parts separate entries of the source, which are not always exact repeats. Equal entries are not always repeated. Inconclusive results and toxic doses are left out.

System: P388 leukemia ip, CD2F1 mice, survival T/C
Test: NCI In Vivo Anticancer Drug Screen. Data for tumor model P388 Leukemia (intraperitoneal) in CD2F1 (CDF1) mice
Conditions: endpoint: median survival time, higher = longer survival
Outline: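 Mice carrying the transplanted tumor received test compound or vehicle. Survival was recorded in each group, and the value is the treated-group measurement divided by that of the vehicle-treated control group.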

[1] = dose: 100.0 mg/kg/injection, schedule: Q01DX001 (ip), vehicle: Klucel (hydroxypropylcellulose) (HPC)
[2] = dose: 400.0 mg/kg/injection, schedule: Q01DX001 (ip), vehicle: Klucel (hydroxypropylcellulose) (HPC)
[3] = dose: 50.0 mg/kg/injection, schedule: Q01DX005 (ip), vehicle: saline with Tween-80
[4] = dose: 100.0 mg/kg/injection, schedule: Q01DX005 (ip), vehicle: saline with Tween-80
[5] = dose: 200.0 mg/kg/injection, schedule: Q01DX005 (ip), vehicle: saline with Tween-80
[6] = dose: 50.0 mg/kg/injection, schedule: Q01DX009 (ip), vehicle: saline with Tween-80
[7] = dose: 100.0 mg/kg/injection, schedule: Q01DX009 (ip), vehicle: saline with Tween-80
[8] = dose: 100.0 mg/kg/injection, schedule: Q04DX003 (ip), vehicle: saline with Tween-80
[9] = dose: 60.0 mg/kg/injection, schedule: Q01DX005 (ip), vehicle: saline with Tween-80
[10] = dose: 120.0 mg/kg/injection, schedule: Q01DX005 (ip), vehicle: saline with Tween-80

## N#CC(c1ccc2c(c1)OCO2)N1CCCC1 (stereo not given)
dose: 12.5 mg/kg/injection, schedule: Q01DX001 (ip), vehicle: Klucel (hydroxypropylcellulose) (HPC)
  T/C: 108 % of control
dose: 25.0 mg/kg/injection, schedule: Q01DX001 (ip), vehicle: Klucel (hydroxypropylcellulose) (HPC)
  T/C: 108 % of control
[1]
  T/C: 100 % of control
[2]
  T/C: 99 % of control

## C=CCN(CC=C)C1CCOC(OC)C1O (stereo not given)
dose: 30.0 mg/kg/injection, schedule: Q01DX005 (ip), vehicle: saline
  T/C: 100 % of control and 112 % of control
dose: 60.0 mg/kg/injection, schedule: Q01DX005 (ip), vehicle: saline
  T/C: 113 % of control [middle of 4 runs]
dose: 120.0 mg/kg/injection, schedule: Q01DX005 (ip), vehicle: saline
  T/C: 119 % of control [middle of 4 runs]
dose: 240.0 mg/kg/injection, schedule: Q01DX005 (ip), vehicle: saline
  T/C: 99 % of control and 119 % of control and 123 % of control

## C/C(=N/O)C1CCC(C2CCCC(C3CCCCC3)C2)CC1 (stereo not given)
[3]
  T/C: 94 % of control
[4]
  T/C: 94 % of control
[5]
  T/C: 93 % of control

## Cc1cc(=O)n2c(c1)[nH]c1ccccc12
[1]
  T/C: 89 % of control
dose: 200.0 mg/kg/injection, schedule: Q01DX001 (ip), vehicle: Klucel (hydroxypropylcellulose) (HPC)
  T/C: 90 % of control
[2]
  T/C: 88 % of control

## CCOC(=O)c1ccc(N(CCOS(C)(=O)=O)CCOS(C)(=O)=O)cc1
[6]
  T/C: 190 % of control
[7]
  T/C: 215 % of control
[8]
  T/C: 154 % of control
dose: 132.0 mg/kg/injection, schedule: Q04DX003 (ip), vehicle: saline with Tween-80
  T/C: 186 % of control
dose: 200.0 mg/kg/injection, schedule: Q01DX009 (ip), vehicle: saline with Tween-80
  T/C: 95 % of control
dose: 200.0 mg/kg/injection, schedule: Q04DX003 (ip), vehicle: saline with Tween-80
  T/C: 150 % of control and 195 % of control
dose: 300.0 mg/kg/injection, schedule: Q04DX003 (ip), vehicle: saline with Tween-80
  T/C: 172 % of control

## O=C1CSCC(=O)OCCOCCSCCOCCO1
dose: 100.0 mg/kg/injection, schedule: Q04DX003 (ip), vehicle: suspension in saline
  T/C: 92 % of control
dose: 200.0 mg/kg/injection, schedule: Q04DX003 (ip), vehicle: suspension in saline
  T/C: 99 % of control
dose: 400.0 mg/kg/injection, schedule: Q04DX003 (ip), vehicle: suspension in saline
  T/C: 101 % of control

## Fc1ccc(C(Nc2nncs2)Nc2nncs2)c(F)c1
[9]
  T/C: 105 % of control
[10]
  T/C: 96 % of control
dose: 240.0 mg/kg/injection, schedule: Q01DX005 (ip), vehicle: saline with Tween-80
  T/C: 107 % of control

## OC(/C=C/c1ccccc1)Cc1nc2ccccc2[nH]1 (stereo not given)
[9]
  T/C: 98 % of control
[10]
  T/C: 88 % of control

## NC(Cc1ccccc1Cl)c1nn[nH]n1 (stereo not given)
dose: 25.0 mg/kg/injection, schedule: Q04DX002 (ip), vehicle: saline with Tween-80
  T/C: 99 % of control and 93 % of control
dose: 50.0 mg/kg/injection, schedule: Q04DX002 (ip), vehicle: saline with Tween-80
  T/C: 107 % of control and 95 % of control and 96 % of control
dose: 100.0 mg/kg/injection, schedule: Q04DX002 (ip), vehicle: saline with Tween-80
  T/C: 100 % of control
dose: 200.0 mg/kg/injection, schedule: Q04DX002 (ip), vehicle: saline with Tween-80
  T/C: 98 % of control and 100 % of control

## O=C(O)c1cccc([N+](=O)[O-])c1C(=O)c1ccccc1
dose: 25.0 mg/kg/injection, schedule: Q01DX009 (ip), vehicle: saline with Tween-80
  T/C: 100 % of control
[6]
  T/C: 95 % of control
dose: 50.0 mg/kg/injection, schedule: Q04DX003 (ip), vehicle: saline with Tween-80
  T/C: 91 % of control
[7]
  T/C: 100 % of control
[8]
  T/C: 95 % of control

## C/C(=N\NC(=S)Nc1cccc2cccc(S(=O)(=O)O)c12)c1ccccn1
[3]
  T/C: 102 % of control
[4]
  T/C: 100 % of control
[5]
  T/C: 112 % of control

## CNCCNc1ccc(C)c2sc3ccc(O)cc3c(=O)c12
dose: 25.0 mg/kg/injection, schedule: Q01DX009 (ip), vehicle: Klucel (hydroxypropylcellulose) (HPC)
  T/C: 95 % of control

## CCCN(C)CC(=O)NC(Cc1ccccc1)c1ccccc1 (stereo not given)
dose: 30.0 mg/kg/injection, schedule: Q01DX005 (ip), vehicle: Klucel (hydroxypropylcellulose) (HPC)
  T/C: 94 % of control
dose: 60.0 mg/kg/injection, schedule: Q01DX005 (ip), vehicle: Klucel (hydroxypropylcellulose) (HPC)
  T/C: 93 % of control
dose: 120.0 mg/kg/injection, schedule: Q01DX005 (ip), vehicle: Klucel (hydroxypropylcellulose) (HPC)
  T/C: 104 % of control
